Assay results as given in patent US20090196826A1, “COMPOSITIONS AND METHODS OF MAKING NON-SPHERICAL MICRO- AND NANO-PARTICLES” (BOARD OF REGENTS, THE UNIVERSITY OF TEXAS SYSTEM, priority 2007, published 2009).

Tested on: subcutaneous A549 lung tumor xenograft
Assay: antitumor efficacy in subcutaneous A549 lung tumor xenograft (caliper)
Assay type: in vivo, mice
Conditions: equivalent DOX dose 4 mg/kg i.v. at day 0, 2, 5 and 10
Experimental: In a separate study, we have systematically investigated the antitumor efficacy of cRGD-encoded micelles in a subcutaneous A549 lung tumor xenograft study. Tumor size was measured by a caliper and normalized to that at day 0 before treatment. In this study, animals were treated with an equivalent DOX dose at 4 mg/kg for free drug, 0 and 16% cRGD-DOX-SPIO micelles, and coadministration of 16% cRGD-DOX-SPIO micelles with free cRGD peptides ([…]). Free drug or drug-encapsulated micelles were injected i.v. (bolus) into the tail vein at day 0, 2, 5 and 10. The control group was injected with phosphate buffer saline (PBS). Three animals were used for each sample group.

SMILES: COc1cccc2c1C(=O)c1c(O)c3c(c(O)c1C2=O)C[C@@](O)(C(=O)CO)C[C@@H]3O[C@H]1C[C@H](N)[C@H](O)[C@H](C)O1 [free DOX, doxorubicin]
- tumor size change: did not change dramatically
